{"source": "patent US9533002B2", "about": "“Methods of treating a metabolic syndrome by modulating heat shock protein (HSP) 90-β” (Berg LLC, priority 2012, dated 2017)", "key": {"HSMM myotubes [1]": {"system": "HSMM myotubes", "test": "Insulin signaling in HSMM myotubes: western blot of total and phosphorylated Akt, Erk, GSK3β", "assay_type": "cell-based, human", "conditions": "myotubes treated with inhibitor, then insulin stimulation", "description": "Human skeletal muscle myoblasts (HSMM) were procured from PromoCell and were cultured in growth media recommended by the vendor. Confluent cultures were replaced with differentiation media (DMEM, 2% horse serum, pyruvate and HEPES) and cells allowed to differentiate for 7 to 10 days.\nHuman HSMM myotubes cells that were plated in 12 well plates the previous week were used. The media was aspirated and fresh media with appropriate dilutions of the NC and H3 siRNA for Hsp90 knockdown were added such that the final concentration in the wells of the plate was 100 nM. Mirus TKO transfection reagent was used for transfecting the cells. The plate was then incubated at 37° C. overnight.\nThe media was aspirated and the cells were washed off twice—first with warm PBS and second with 0.1% BSA containing growth media. The cells were then serum starved for 2-3 hours in 0.1% differentiation media containing the appropriate inhibitors at 37° C. followed by insulin stimulation for 5 minutes (0, 10, and 100 nM insulin).\nThe wells were then washed once with PBS and harvested into 100 μl of RIPA buffer containing protease and phosphatase inhibitors. The plate was placed on ice and, using a cell scraper, the cells were scraped from the plate. […]\nProtein content was estimated by BCA assay and samples were prepared for gel electrophoresis and western blotting as described in subsequent sections. The total volume required to load 10 μg of total protein was calculated. […]\nVisualization of proteins and quantification of western blots was performed as follows. […]\nEach strip of membrane was taken out arranged in a clean flat surface. […] The bands were quantified using the BIORAD® software.\nHSMM myotubes were sequentially (1) transfected with 3 different siRNAs targeting HSP90AB1 for 48 hours, (2) serum starved for 3 hours, and (3) subjected to stimulation of different concentrations of insulin (0, 10, 100 nM). Signaling events downstream of insulin stimulation were assessed by western blotting for levels of total and phosphorylated Akt, Erk, and GSK3β. […]"}, "HSMM myotubes [2]": {"system": "HSMM myotubes", "test": "Seahorse bioenergetic profiling of myotubes (OCR; oligomycin, CCCP, rotenone)", "assay_type": "cell-based, human", "description": "HSMM myotubes cultured in wells in a Seahorse® assay cartridge were differentiated with 2% horse serum myocyte differentiation media for 7 days. Cells were transfected with either negative control scrambled siRNA or siHsp siRNA with TKO transfection reagents at concentration of 50 nM following vendor instructions as described above (Mirus Bio®). After 48 hours transfection, cells were subjected to Seahorse® bioenergetics analysis using drugs to modulate cell energetics, i.e., oligomycin, carbonyl cyanide-M-chlorophenyl hydrazine (CCCP), and rotenone. Oligomycin inhibits mitochondrial ATP synthase (complex V of ET chain) and allows analysis of glycolytic capacity. CCCP is an uncoupler that […] the mitochondrial membrane, thereby inducing maximum compensatory oxygen consumption, and allows analysis of uncoupled OCR. Rotenone inhibits NADH dehydrogenase (complex I of ET chain) and allows analysis of non-mitochondrial OCR.\nTo perform the assay, each well of the Seahorse® assay cartridge was washed with 1 ml running media. 500 ul of running media was added to each well and the plate was placed in an 37° C. (CO2 free) incubator. Drugs to modulate mitochondrial activity were prepared at a 10× (10 uM) concentration, so that after addition to the cartridge, the final concentration would be 1× (1 μM). Oligomycin (50 ul), CCCP (55 ul) and rotenone (55 ul) were added to ports A, B, and C of the cartridge and the cartridge was placed back in the incubator. The Seahorse® assay wizard was opened and the cycle parameters and times were setup. The Seahorse® assay was then performed using the instrument. After the Seahorse® assay, cells were lysed with 50 ul 450 mM NaOH and then neutralized with 5 ul Tris 6.8. DNA lysates were subjected to spectrophotometric analysis at OD260 using BioTek® Take3 DNA plate reader. The data were normalized with DNA contents of the cells.\nHSMM myotubes were transfected with siRNA of either control or siHsp90β for 48 hours as described above, then subjected to Seahorse® bioenergetic profiling (XF24 Analyzer) using different mitochondrial drugs including oligomycin, CCCP, and rotenone; and monitored changes on oxygen consumption rate (OCR) that reflects either basal or maximum mitochondrial oxidative capacity. The results were normalized by DNA content."}, "[3]": {"conditions": "myotubes treated at different concentrations"}}, "note": "Entries after “also recorded” stand apart in the source; their conditions may differ."}
{"smiles": "CCc1cc(-c2n[nH]c(C)c2-c2ccc3c(c2)OCCO3)c(O)cc1O", "note": "[CCT018159]", "values": [{"measurement": "level of pERK", "setting": "HSMM myotubes [1]", "result": "no change; also recorded: No significant changes"}, {"measurement": "level of pGSK3β", "setting": "HSMM myotubes [1]", "result": "no change; also recorded: No significant changes"}, {"measurement": "insulin stimulated phosphorylation of Akt (phospho-AKT)", "setting": "HSMM myotubes [1]; higher concentration, 10 uM, vs untreated cultures", "result": "significantly enhanced; also recorded: increase"}, {"measurement": "CCCP induced uncoupling response on mitochondrial metabolism", "setting": "HSMM myotubes [2]; 1 μM, 3 μM, and 10 μM (FIG. 10 legend)", "result": "did not have a significant effect"}, {"measurement": "CCCP induced OCR", "setting": "HSMM myotubes [2]; 10 uM", "result": "greater suppression"}, {"measurement": "uncoupled OCR", "setting": "HSMM myotubes [2]; lower concentration, 1 μM", "result": "increased"}, {"measurement": "basal OCR", "setting": "HSMM myotubes [2]; [3]", "result": "no observed change"}, {"measurement": "uncoupled OCR (CCCP induced)", "setting": "HSMM myotubes [2]; [3]", "result": "decreased in a concentration dependent manner"}]}
